The structures appear in SMILES notation.

The series can be described thus: method code SF, from DOI: 10.1007/bf00302523.

What is called logP is a log measure of how a compound divides between an organic and an aqueous phase. Low readings indicate a more hydrophilic compound, high ones a more lipophilic compound. As for `COP(=S)(OC)Oc1cc(C)c([N+](=O)[O-])c(C)c1`, the logP turned out to be 3.89.

`CCc1cc(OP(=S)(OC)OC)ccc1[N+](=O)[O-]`: the lipophilicity (logP) came to 3.74.

`COP(=S)(OC)Oc1ccc([N+](=O)[O-])cc1Cl` returned a logP of 3.44.

In the case of `COP(=O)(OC)Oc1ccc([N+](=O)[O-])cc1Cl`, the logP turned out to be 1.84.

For the molecule `COP(=O)(OC)Oc1ccc([N+](=O)[O-])c(Cl)c1`, the logP was 1.83.

Molecule `CCc1cc(OP(=O)(OC)OC)ccc1[N+](=O)[O-]` returned a logP of 2.19.

For `COP(=S)(OC)Oc1ccc([N+](=O)[O-])c(Cl)c1`, the logP is 3.45.

On to `COP(=S)(OC)Oc1ccc([N+](=O)[O-])c(C)c1`, for which the logP came to 3.3.

`COP(=O)(OC)Oc1cc(C)c([N+](=O)[O-])c(C)c1` returned a logP of 2.26.

`COP(=S)(OC)Oc1ccc([N+](=O)[O-])c(C(C)C)c1` displayed a logP of 4.05.

In turn, `COP(=O)(OC)Oc1ccc([N+](=O)[O-])c(C(C)C)c1` yielded a logP of 2.57.

In turn, `COP(=O)(OC)Oc1ccc([N+](=O)[O-])c(C)c1` gave a log partition coefficient (logP) of 1.69.

The record behind these values is the SangsterLogP compilation.
